# Data as given in patent publication US4137420A, “Cysteine derivatives” (Santen Pharmaceutical Co., Ltd., priority 1976, dated 1979).
# What was measured:
# [1] = In vitro determination of the reduction in viscosity of egg white; conditions: 20 minutes at 37° C, mean ± S.E. of 3 to 5 experiments
# Description: Mucolytic activity is evaluated by determining the reduction in viscosity of egg white or mucin in vitro. L-Cysteine ethyl ester hydrochloride, L-cysteine methyl ester hydrochloride and acetyl-L-cysteine are used as test compounds for comparison. (1) In vitro determination of the reduction in viscosity of egg white Egg white, which is pooled in sufficient quantity to supply material for all the determinations, is gently blended in a mixer for 5 minutes. 9ml portions of this material are put into a 50-ml beaker and the test solution in a volume of 1ml containing various concentrations of test compound (test compound is dissolved in distilled water and the solution is adjusted to pH 8.0 with 1 N sodium hydroxide, while distilled water is used as a control) is added. The mixture is then shaken for 20 minutes at 37° C. Viscosity of the resulting solution is determined by an Ostwald viscosimeter. Results shown in Table 1 are percent reduction in relative viscosity at various concentrations of the test compound used.
# [2] = Changes in the mucolytic activity of the test compounds treated with rabbit serum (viscosity of egg white); conditions: for Reduction in the mucolytic activity (%): 1.0 mM, rabbit serum treated vs untreated; for Percent reduction in relative viscosity of egg white, treated with rabbit serum / Percent reduction in relative viscosity of egg white, untreated with rabbit serum: final concentration 1.0 mM, mean ± S.E. of 3 to 5 experiments; for Percent reduction in relative viscosity of egg white, treated with rabbit serum: after 30 minutes at 37° C with rabbit serum; for Percent reduction in relative viscosity of egg white, untreated with rabbit serum: without rabbit serum
# Description: (3) Changes in the mucolytic activity of the test compounds treated with rabbit serum.
# 0.1ml of test compound (prepared in the same manner as (1) previously described) and 0.9ml of rabbit serum are put into a 50-ml beaker and the resulting mixture is shaken for 30 minutes at 37° C. 9ml of egg white is then added it and it is shaken for another 20 minutes. The viscosity of the resulting solution is determined by an Ostwald viscosimeter. Results shown in Table 2 are percent reduction in the relative viscosity of egg white at 1mM of the test compounds after treatment with or without rabbit serum.
# mucin = test: In vitro determination of the reduction in viscosity of mucin; conditions: 10 mM; 1% mucin, pH 8.0, 1 hour at 37° C; mean ± S.E. of 3 to 5 experiments
# Description: Mucolytic activity is evaluated by determining the reduction in viscosity of egg white or mucin in vitro. L-Cysteine ethyl ester hydrochloride, L-cysteine methyl ester hydrochloride and acetyl-L-cysteine are used as test compounds for comparison.
# (2) In vitro determination of the reduction in viscosity of mucin
# According to the method presented by Sheffner et al. (Ann, N.Y. Acad. Sci., Vol. 106, P 298-310, 1963), bacteriological mucin (Nakarai Chemical Co., Ltd.) is dissolved in Sorensen's phosphate buffer (pH =8.0) and a 1% mucin solution is prepared. 0.9ml portions of the solution are put into test tubes and test compounds (prepared in the same manner as in (1) previously described, except that the buffer solution is used for control) are added to them in a concentration 10mM. The mixture is then shaken for 1 hour at 37° C. The viscosity of the resulting solution is determined by Ostwald viscosimeter. Results shown in Table 1 are percent reduction in relative viscosity at 10mM of the test compounds used.
# in vivo = conditions: mouse, ip
# Description: 5-week-old male mice of ddy strain (body weight 24-28g) are used. […] Test solution
# Test compound is added to physiological saline and the resulting solution is neutralized with sodium hydroxide to form a 5% solution (pH 7.0).
# After administration of test solution, general symptoms and deaths which are caused during seven days are observed. The LD50 values are calculated according to the method of Litchfield and Wilcoxon.
Structure (SMILES),"Percent reduction in relative viscosity, egg white ([1]; final concentration 0.1 mM)","Percent reduction in relative viscosity, egg white ([1]; final concentration 10.0 mM)",Reduction in the mucolytic activity (%) [2],"Percent reduction in relative viscosity of egg white, treated with rabbit serum [2]","Percent reduction in relative viscosity of egg white, untreated with rabbit serum [2]","Percent reduction in relative viscosity, mucin (mucin)",LD50 at 168 h (in vivo)
O=C(CCS)N[C@@H](CS)C(=O)O [N-(3-mercaptopropionyl)-L-cysteine],22.8 ± 0.1%,54.5 ± 4.7%,-5.4%,38.7 ± 2.6%,36.7 ± 1.6%,28.1 ± 0.5%,–
"COC(=O)[C@@H](N)CS.Cl [L-cysteine methyl ester hydrochloride, reference compound]",31.1 ± 5.6%,60.6 ± 2.4%,84.6%,7.0 ± 1.2%,45.5 ± 2.0%,17.8 ± 0.2%,–
CC(C)(S)C(=O)N[C@@H](CS)C(=O)O [N-(2-mercaptoisobutyryl)-L-cysteine],23.1 ± 1.4%,57.0 ± 1.0%,14.1%,32.9 ± 1.0%,38.3 ± 2.2%,22.5 ± 1.5%,–
O=C(CS)N[C@@H](CS)C(=O)O [N-mercaptoacetyl-L-cysteine],26.1 ± 4.1%,60.0 ± 4.4%,9.8%,35.9 ± 0.3%,39.8 ± 3.0%,31.8 ± 1.5%,–
"CC(S)C(=O)N[C@@H](CS)C(=O)O (single isomer, unassigned) [N-(2-mercaptopropionyl)-L-cysteine-A]",24.9 ± 1.5%,56.4 ± 1.6%,27.2%,30.0 ± 1.0%,41.2 ± 2.1%,26.6 ± 1.5%,2090 mg/kg
"CCOC(=O)[C@@H](N)CS.Cl [L-cysteine ethyl ester hydrochloride, L-Cysteine ethyl ester hydrochloride, reference compound]",25.1 ± 3.5%,59.9 ± 1.2%,63.3%,15.4 ± 1.8%,42.0 ± 1.1%,19.7 ± 1.5%,–
"CC(=O)N[C@@H](CS)C(=O)O [N-acetyl-L-cysteine, acetyl-L-cysteine, reference compound]",11.0 ± 2.6%,49.0 ± 1.8%,37.3%,18.5 ± 0.8%,29.5 ± 2.5%,4.8 ± 2.5%,–
"CC(S)C(=O)N[C@@H](CS)C(=O)O (single isomer, unassigned) [N-(2-mercaptopropionyl)-L-cysteine-B]",24.9 ± 1.4%,57.7 ± 1.0%,18.8%,31.1 ± 3.8%,38.1 ± 2.6%,20.1 ± 0.4%,–
